Laboratory results reported in patent US20090082368A1, “METHODS OF MODULATING NEUROTROPHIN-MEDIATED ACTIVITY” (PainCeptor Pharma Corporation, priority 2007, published 2009).
Where two headings read alike, the source gives them in different places.

Experiments:
[1] = test system: spontaneous pain evoked by intraplantar injection of formalin in the rat; test: Formalin model of acute tonic pain; type: in vivo; details: for pain intensity as evaluated by the licking behavior: s.c. 30 min prior to formalin, 2E 0.1-10 mg/kg, 1G 0.4-20 mg/kg, 47G 10-300 μmol/kg, 50G 30 and 100 μmol/kg
Description: Male Sprague-Dawley rats are housed together in groups of three animals under standard conditions with unrestricted access to food and water. All experiments are conducted according to the ethical guidelines for investigations of experimental pain in conscious animals (Zimmerman, 1983).
Assessment of formalin-induced flinching behavior in normal, uninjured rats (body weight 200-300 g) is made after formalin (2.5% in saline, 50-100 μl, s.c.) is injected into the plantar surface of the hindpaw using a 27G needle. Rats are pretreated with test compounds either administered intravenously (IV), by subcutaneous injection (SC) or by orally (PO).
Nociceptive behavior is determined manually every 5 min by measuring the amount of time spent in each of four behavioral categories: 0, treatment of the injected hindpaw is indistinguishable from that of the contralateral paw; 1, the injected paw has little or no weight placed on it; 2, the injected paw is elevated and is not in contact with any surface; 3, the injected paw is licked, bitten, or shaken. A weighted nociceptive score, ranging from 0 to 3 is calculated by multiplying the time spent in each category by the category weight, summing these products, and dividing by the total time for each 5 min block of time. (Coderre et al., Pain 1993; 54: 43). On the basis of the resulting response patterns, […] of nociceptive behavior are identified and scored: first phase (P1; 0-5 min), interphase (Int; 6-15 min), second phase (P2; […]), phase 2A (P2A; 16-40 min) and phase 2B (P2B; 41-60 min).
Statistical analysis is performed using the Prism™ 4.01 software package (GraphPad, San Diego, Calif., USA). The difference in response levels between treatment groups and control vehicle group is analyzed using an ANOVA followed by Bonferroni's method for post-hoc pair-wise comparisons. A p value<0.05 is considered to be significant.

[2] = test system: hyperalgesia from acute paw inflammation caused by intraplantar λ-carrageenan; test: Carrageenan model (inflammatory pain); type: in vivo; details: rat, SC 10 min pre- and 3 h post-carrageenan, tested 4 h post; 1G 20 mg/kg, 50G 2×105 mg/kg
Description: Acute inflammatory hyperalgesia is induced in rats by unilateral injection of 150 μl of a 3% solution of λ-carrageenan into the plantar surface of the left hind paw 3-5 hours prior to testing. Thermal hyperalgesia, mechanical allodynia, mechanical hyperalgesia, weight bearing asymmetry and paw inflammation are determined. Rats are pretreated with test compounds either administered intravenously (IV), by subcutaneous injection (SC) or by oral gavage (PO). Thermal nociceptive thresholds are determined according to the method described elsewhere (Hargreaves et al., 1988). Briefly, through the glass surface, a radiant heat source (8V, 50 W projector bulb) is focused onto the plantar surface of the hind paw. The rat's paw-withdrawal latency to this stimulus is recorded to the nearest 0.1 s. Each latency score is an average of three trials, which are separated by at least 5 min. In all rats, both the injured and uninjured hind paws are similarly tested, allowing direct comparisons between inflamed and non-inflamed paws. Mechanical hyperalgesia is determined by measuring the difference of withdrawal thresholds in response to increasing pressure in the inflamed vs contralateral paw using the Randall-Sellito Paw pressure meter (IITC Life Science) (Randall L O and Sellito J J., 1957). Briefly, rats are held in a contention jacket suspended by a stand and allowed to acclimate for 10 min. […]

[3] = test system: NGF-induced ERK phosphorylation; test: Inhibition of NGF-induced Erk 1/2 phosphorylation (pERK); type: cell-based; details: Rattus norvegicus, Table 2
Description: This assay is useful for establishing that the compounds of the invention are functional NGF antagonists, not receptor agonists (an agonist could conceivably block NGF binding but actually activate the receptor). Erk 1/2 is a kinase activated down stream of TrkA and is a well studied member of the NGF-induced signal transduction cascade.
PC12 cells expressing TrkA and p75 are acutely exposed to 1 ng/mL NGF (15 min; 37° C.; 5% CO2) that is pre-incubated (30 min; room temperature) with or without the compounds. Cells are lysed in Laemmli sample buffer (for SDS-PAGE) or a lysis buffer containing Triton X-100 (for ELISA). Following SDS-PAGE, proteins are electroblotted onto nitrocellulose and immunoprobed for phosphorylated Erk 1 and 2. Blocking and primary antibody incubations of immunoblots are performed in Tris-buffered saline-Tween (10 mM Tris, pH 8.0, 150 mM NaCl, and 0.2% Tween 20) supplemented with 5% (w/v) bovine serum albumin (BSA); secondary antibody incubations are performed in 5% (w/v) dried skim milk powder. Immunoreactive bands are detected by chemiluminescence.
A quantitative method to detect phosphorylated Erk 1/2 by immunofluorescence is also used. Neuroscreen-1 cells are grown in a 96 well plate. NGF preincubated with or without the compounds for 30 minutes, is added to the cells for 5 minutes at 37° C. Cells are then fixed and stained with an antibody against phosphor-ERK 1/2. A fluorescently labeled secondary antibody is used to show the presence of phosphorylated ERK 1/2. Quantitative results are generated by photographing the wells with light of the appropriate wavelength, followed by software based image analysis.

[4] = test system: NGF receptors on PC12 cells (TrkA+p75); test: NGF binding (125I-NGF) using PC12 cells; set-up: species or system rat
Description: NGF binding was evaluated using methods familiar to those who are skilled in the art. Briefly, cells expressing one or both NGF receptors (PC12: TrkA+p75; A875: p75 alone; HEK/CHO_trkA: TrkA alone) were harvested by replacing the medium with the cell dissociation buffer (Amersham) and incubating at 37° C. for 15 min. […] For most compounds, multiple dose-response curves were generated.
The IC50 data shown in Tables A-J were acquired using the procedure described herein using PC12 cells.

[5] = test system: PC12 cells; test: Inhibition of NGF-induced neurite outgrowth; type: cell-based; details: Rattus norvegicus, PC-12, 96 h, Table 3, 4 days exposure to NGF
Description: This assay is run as a further functional marker of NGF antagonism and takes advantage of the differentiation of PC12 cells (neurite outgrowth) induced by NGF. Cultures of PC12 cells are grown on Terasaki plates pre-coated with poly-D-lysine. Cells are exposed to NGF (1-50 (preferably 5) ng/ml) to induce neurite outgrowth as described elsewhere [LA Greene & AS Tischler, Establishment of a noradrenergic clonal line of rat adrenal pheochromocytoma cells which respond to nerve growth factor, Proc Natl Acad Sci USA. 1976 July; 73(7): 2424-2428]. In addition to NGF, cells are exposed to varying concentration of the compounds or vehicle. Following 4 days of exposure to NGF in the presence or absence of compound, neurite outgrowth is quantified. A neurite is scored if its caliber from origin to terminal is approximately the same and the length is equal to or greater than 1.5 the cell body diameter. The number of neurite bearing cells per total number of viable cells is calculated for each condition; the number of cells with neurites in the presence of NGF (without compound exposure) is considered to represent maximal (100%) outgrowth, to which the inhibitory effect of compounds of the invention on NGF-induced outgrowth is compared.

[6] = Table 2, read-out: NGF Binding Assay IC50
[7] = Table J (Formula VIII), NGF binding, PC12 cells, read-out: IC50

IC50 ([4]; Table 3, read-out: NGF Binding Assay IC50)	Structure (SMILES)	pain intensity as evaluated by the licking behavior [1]	mechanical hyperalgesia (Randall-Sellito) [2]	thermal hyperalgesia (Hargreaves' assay) [2]	IC50 [3]	IC50 [4, 6]	IC50 [4, 7]	ED50 ([1]; sc, given 30 min prior to formalin injection, read-out: ED50, number of licking and biting episodes in phase IIa of the formalin test)	IC50 [5]
–	O=C(O)CCCN1C(=O)c2cccc3cc(-n4cnnn4)cc(c23)C1=O [Compound 50G, 4-[1,3-Dioxo-5-(1H-tetrazol-1-yl)-1H-benzo[de]isoquinolin-2(3H)-yl]butanoic acid]	dose-dependent reduction of the pain intensity	marginally improving the mechanical hyperalgesia	significantly reversed the thermal hyperalgesia	5 to 15 µM	< 10 µM	< 10 µM	–	–
< 10 µM	Cn1nnnc1-c1cc2c3c(cccc3c1)C(=O)N(CCCC(=O)O)C2=O [Compound 47G, 4-[5-(1-Methyl-1H-tetrazol-5-yl)-1,3-dioxo-1H-benzo[de]isoquinolin-2(3H)-yl]butanoic acid]	dose-dependent reduction of the pain intensity	–	–	15 to 25 µM	< 10 µM	< 10 µM	~100 µmol/kg	0.1 to 5 µM
